This experiment concerns male Zucker Fatty Rats. Put plainly: In vivo activity in glucose tolerance model (oral glucose challenge). More on the design: species or system rat. Conditions: mean ± SE, n = 4; for Blood glucose, t = 10: t = 10 minutes; for Blood glucose, t = 20: t = 20 minutes; for Blood glucose, t = 30: t = 30 minutes; for Blood glucose, t = 60: t = 60 minutes; for Blood glucose, t = 120: t = 120 minutes. The procedure: The activity of the compounds was investigated in male Zucker Fatty Rats between 10 and 20 weeks of age. The animals were fasted overnight and then administered with the test compound (10 mg/kg) as a solution by oral gavage. One hour later hour a blood sample (200 μl) is taken from the tail vein to establish a baseline (t=0) glucose level, then the animals are given glucose (1 g/kg as a 40% wt/vol solution) orally. Further blood samples are taken at t=10, 20, 30, 60 and 120 minutes. Glucose is determined by an enzymatic assay.
In a separate experiment the test compound was given at the same dose (10 mg/kg) but 12 hours before the oral glucose challenge.

Setting [1] is: 10 mg/kg oral gavage 1 hour before oral glucose (1 g/kg), baseline t = 0.
Where [2] appears, read: 10 mg/kg oral gavage 1 hour before oral glucose (1 g/kg).
Where [3] appears, read: 10 mg/kg given 12 hours before the oral glucose challenge.

Take `CC[C@H](C)[C@H](NC(=O)OC(C)OC(C)=O)C(=O)N1CCC[C@H]1C#N` (stereo partly drawn) [Example 2, (2S)-1-(N′-(1″-Acetoxyethoxycarbonyl)isoleucyl)pyrrolidine-2-carbonitrile]: the “Blood glucose, t = 0” value under setting [1] was found to be 80.2 ± 4.2 mg/dL. Under setting [2], the “Blood glucose, t = 10” value amounted to 122.2 ± 7.8 mg/dL; the “Blood glucose, t = 20” value stood at 117.8 ± 4.8 mg/dL; the “Blood glucose, t = 30” value was determined as 104.4 ± 5.6 mg/dL; the “Blood glucose, t = 60” value stood at 117.6 ± 6.7 mg/dL. In addition, the “Blood glucose, t = 120” value under setting [2] is 111.3 ± 12.1 mg/dL.

Consider `CC[C@H](C)[C@H](NC(=O)OC)C(=O)N1CCC[C@H]1C#N` [Example 3, (2S)-1-(N′-(Methoxycarbonyl)isoleucyl)pyrrolidine-2-carbonitrile], for which the “Blood glucose, t = 0” value under setting [1] was found to be 86.4 ± 3.4 mg/dL. Under setting [2], the “Blood glucose, t = 10” value was determined as 175.1 ± 3.8 mg/dL; the “Blood glucose, t = 20” value amounted to 148.5 ± 23.2 mg/dL; the “Blood glucose, t = 30” value was determined as 136.7 ± 16.9 mg/dL; the “Blood glucose, t = 60” value turned out to be 120.6 ± 8.3 mg/dL. Besides, under setting [2], the “Blood glucose, t = 120” value worked out at 101.9 ± 4.5 mg/dL.

Regarding `CC(=O)OC(C)OC(=O)N[C@H](C(=O)N1CCC[C@H]1C#N)C(C)(C)C` (stereo partly drawn) [Example 1, (2S)-1-((2′S)-2′-(1″-Acetoxyethoxycarbonylamino)-3′,3′-dimethylbutanoyl)pyrrolidine-2-carbonitrile], under setting [3], the “AUC (area under the concentration-time curve) of blood glucose” value was found to be 2430 ± 591; the “Blood glucose, t = 10” value came out at 113.5 ± 10.8 mg/dL; the “Blood glucose, t = 20” value came out at 111.3 ± 9.9 mg/dL; the “Blood glucose, t = 30” value stood at 91.9 ± 11.8 mg/dL. For the same molecule, under setting [3], the “Blood glucose, t = 60” value was 99.3 ± 10.0 mg/dL and the “Blood glucose, t = 120” value was 116.9 ± 14.4 mg/dL. Besides, the “Blood glucose, t = 0” value (10 mg/kg given 12 hours before the oral glucose challenge, t = 0) is 83.7 ± 3.8 mg/dL.

Take `CC[C@H](C)[C@H](N)C(=O)N1CCC[C@H]1C#N` [Reference, (2S)-1-(Isoleucyl)pyrrolidine-2-carbonitrile, reference compound]: the “Blood glucose, t = 0” value under setting [1] is 91.4 ± 5.2 mg/dL. Also, under setting [2], the “Blood glucose, t = 10” value stood at 125.8 ± 8.9 mg/dL; the “Blood glucose, t = 20” value was 110.0 ± 21.5 mg/dL; the “Blood glucose, t = 30” value was 110.9 ± 4.4 mg/dL; the “Blood glucose, t = 60” value turned out to be 112.2 ± 7.5 mg/dL. The “Blood glucose, t = 120” value under setting [2] was 108.7 ± 8.9 mg/dL.

On to `CC[C@H](C)[C@H](NC(=O)CN)C(=O)N1CCC[C@H]1C#N` [Example 5, (2S)-1-(Glycylisoleucyl)pyrrolidine-2-carbonitrile], for which, under setting [1], the “Blood glucose, t = 0” value came to 80.5 ± 1.4 mg/dL. Under setting [2], the “Blood glucose, t = 10” value was 141.3 ± 14.5 mg/dL; the “Blood glucose, t = 20” value is 134.2 ± 10.3 mg/dL; the “Blood glucose, t = 30” value worked out at 129.2 ± 8.2 mg/dL; the “Blood glucose, t = 60” value was 114.6 ± 8.1 mg/dL. Under setting [2], the “Blood glucose, t = 120” value came to 121.2 ± 5.8 mg/dL.

These data come from patent publication US7169806B2, “Antidiabetic agents” (Ferring BV, priority 1999, dated 2007).
